Our source for the TGI and GI50 values is PubChem BioAssay (NCI).

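Following 48 hours of exposure in 96-well plates, responses at five concentrations were used to interpolate endpoints linearly. Here, GI50 denotes the concentration required for 50% inhibition of growth. TGI: total growth inhibition.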 Where a SMILES comes first, the peptide text is derived from it. The star is where a group is joined. Boc = CC(C)(C)OC(=O)*

Among the test systems are SNB-19 CNS; M14 melanoma; IGROV1 ovarian; SF-268 CNS; OVCAR-3 ovarian; CCRF-CEM leukemia; A498 renal; UO-31 renal.
What all share (assay): NCI-60 cell line screen, 48 h

Regarding `Nc1ccc(-c2nnc(-c3c(Cl)c(Cl)c(Cl)c(Cl)c3-c3nc4ccc(C(=O)c5ccccc5)cc4[nH]3)o2)cc1`, the TGI was 67.4 µM in the assay with SNB-19 CNS; 34.8 µM with M14 melanoma; above 100 µM in the assay on IGROV1 ovarian; above 100 µM with SF-268 CNS; 62.6 µM in the assay with OVCAR-3 ovarian; 70.3 µM in the assay on CCRF-CEM leukemia. Moreover, the TGI was 63.2 µM in the assay with A498 renal and above 100 µM in the assay on UO-31 renal.
As for `Oc1c(Nc2ccccc2)cc2c3c1N=NC=3CCN=2`, the TGI in the assay with SNB-19 CNS is above 100 µM; in the assay with M14 melanoma it was above 100 µM; in the assay with IGROV1 ovarian it was above 100 µM; in the assay with SF-268 CNS, above 100 µM; in the assay on OVCAR-3 ovarian, above 100 µM; in the assay with CCRF-CEM leukemia, 93.9 µM. Moreover, the TGI in the assay with A498 renal and with UO-31 renal was above 100 µM in each case.
Turning to `CC(C)(Cl)C(Br)CCC(=CCBr)CBr` (mixture of isomers), the TGI in the assay with SNB-19 CNS came out at 13.1 µM; in the assay with M14 melanoma it was 4.25 µM; in the assay with IGROV1 ovarian, 5.56 µM; with SF-268 CNS, 4.99 µM; with OVCAR-3 ovarian, 6.27 µM; in the assay with CCRF-CEM leukemia it was 3.49 µM. Besides, the TGI in the assay on A498 renal was 18.3 µM; in the assay with UO-31 renal, 3.42 µM.
On to `C=CC(C)(C)c1c(OC)oc2ccc(OC)c(C)c2c1=O`, for which the TGI in the assay with SNB-19 CNS, in the assay on M14 melanoma, in the assay on IGROV1 ovarian, in the assay with SF-268 CNS, in the assay with OVCAR-3 ovarian and with CCRF-CEM leukemia was above 100 µM each time. Besides, the TGI with A498 renal and in the assay with UO-31 renal was above 100 µM throughout.
With `c1ccc(C2C3=C(c4ccccc4CC3)N3c4cc5nc6ccccc6nc5cc4NC34CCCCC24)cc1` (stereo unspecified), the TGI with SNB-19 CNS was above 10 µM; in the assay on M14 melanoma it was above 10 µM; in the assay on IGROV1 ovarian it was above 10 µM; in the assay on SF-268 CNS it was above 10 µM; with OVCAR-3 ovarian, above 10 µM; in the assay on CCRF-CEM leukemia it was 5.9 µM. The TGI in the assay on A498 renal and with UO-31 renal was above 10 µM each time.
Take `O=C(O)[C@@]1(Cc2ccc(O)cc2)C[C@@H]2Cc3ccccc3N2N1`: the TGI in the assay with SNB-19 CNS, in the assay with M14 melanoma, in the assay with IGROV1 ovarian, in the assay on SF-268 CNS, in the assay with OVCAR-3 ovarian and in the assay on CCRF-CEM leukemia was above 100 µM each time. Moreover, the TGI in the assay with A498 renal and with UO-31 renal was above 100 µM each time.
For the compound `Cc1ccc(OC2CC(n3cnc4c(=O)[nH]c(Br)nc43)OC2Oc2ccc(C)cc2)cc1` (stereo unspecified), the TGI is 49 µM in the assay with SNB-19 CNS; 62.1 µM in the assay with M14 melanoma; 66.9 µM in the assay with IGROV1 ovarian; 58.1 µM in the assay on SF-268 CNS; 39.9 µM in the assay with OVCAR-3 ovarian; 53.7 µM with CCRF-CEM leukemia. The TGI was above 100 µM in the assay on A498 renal and 38.4 µM in the assay on UO-31 renal.
Regarding `CC1NC(=O)c2c(-c3ccccc3)nn(-c3ccccc3)c2NC1=O` (stereo unspecified), the TGI in the assay on SNB-19 CNS, in the assay with M14 melanoma, with IGROV1 ovarian, with SF-268 CNS, in the assay with OVCAR-3 ovarian and in the assay on CCRF-CEM leukemia was above 100 µM each time. Also, the TGI with A498 renal and in the assay with UO-31 renal was above 100 µM each time.
Turning to `CCOC(=O)c1ccc(N(C)Cc2cnc3nc(N)nc(N)c3n2)cc1`, the TGI with SNB-19 CNS is above 100 µM; in the assay on M14 melanoma, 97.2 µM; in the assay with IGROV1 ovarian it was 86 µM; in the assay with SF-268 CNS it was above 100 µM; in the assay with OVCAR-3 ovarian it was 34.9 µM; in the assay on CCRF-CEM leukemia, above 100 µM. Also, the TGI in the assay on A498 renal is 59.8 µM; in the assay on UO-31 renal, 72.1 µM.
For `COc1ccc(-c2c(C(C)=O)c(C)n(C3OC(COC(C)=O)C(OC(C)=O)C(OC(C)=O)C3OC(C)=O)c(=S)c2C#N)cc1` (stereo unspecified), the TGI in the assay on SNB-19 CNS, in the assay with M14 melanoma, in the assay on IGROV1 ovarian, in the assay with SF-268 CNS, in the assay with OVCAR-3 ovarian and in the assay with CCRF-CEM leukemia was above 100 µM throughout. Further, the TGI in the assay with A498 renal was above 100 µM; in the assay with UO-31 renal it was 5.01 µM.
As to `CC(=O)OC12c3ccccc3C(c3ccccc31)C1C(=O)N(c3ccccc3O)C(=O)C12` (stereo unspecified), the TGI in the assay with SNB-19 CNS, with M14 melanoma, in the assay on IGROV1 ovarian, in the assay on SF-268 CNS, in the assay on OVCAR-3 ovarian and with CCRF-CEM leukemia was above 100 µM in each case. Moreover, the TGI in the assay on A498 renal and with UO-31 renal was above 100 µM throughout.
`NCCSC1(O)C(=O)c2ccccc2-c2ccccc21` (stereo unspecified): the TGI in the assay on SNB-19 CNS worked out at 2.86 µM; with M14 melanoma it was 4.25 µM; in the assay with IGROV1 ovarian, 3.73 µM; with SF-268 CNS it was 2.91 µM; with OVCAR-3 ovarian, 0.38 µM; with CCRF-CEM leukemia it was 6.82 µM. Besides, the TGI in the assay on A498 renal stood at 3.11 µM; in the assay with UO-31 renal, 2.87 µM. The GI50 with A498 renal is 1.71 µM.
`CC1(C)OC[C@@H]([C@H](C=O)OCc2ccccc2)O1`: the TGI with SNB-19 CNS, in the assay on M14 melanoma, with IGROV1 ovarian, with SF-268 CNS, in the assay with OVCAR-3 ovarian and in the assay with CCRF-CEM leukemia was above 100 µM throughout. Also, the TGI with A498 renal and in the assay with UO-31 renal was above 100 µM each time.
`CNC(=O)CNC(=O)C(NC(=O)CNC(=O)C1CCCN1C(=O)C(C)NC(=O)C(NC(=O)OC(C)(C)C)C(C)C)C(C)C` (stereo unspecified) (Boc-VAPGVG-NHMe; configuration not given here): the TGI with SNB-19 CNS, in the assay with M14 melanoma, with IGROV1 ovarian, in the assay with SF-268 CNS, in the assay on OVCAR-3 ovarian and in the assay with CCRF-CEM leukemia was above 100 µM throughout. For the same compound, the TGI in the assay on A498 renal and with UO-31 renal was above 100 µM throughout.
As for `Clc1ccc(-c2cn3c(nc4ccccc43)c(/C=C/c3cccs3)n2)cc1`, the TGI in the assay with SNB-19 CNS, in the assay on M14 melanoma, with IGROV1 ovarian, with SF-268 CNS, in the assay on OVCAR-3 ovarian and with CCRF-CEM leukemia was above 100 µM each time. Further, the TGI with A498 renal and in the assay with UO-31 renal was above 100 µM in each case.
